We go through twelve compounds from patent US9850283B2, “Macrocyclic inhibitors of the PD-1/PD-L1 and CD80(B7-1)/PD-L1 protein/protein interactions” (BRISTOL-MYERS SQUIBB COMPANY, priority 2013, dated 2017).

Positions of bridges follow the written chain, without caps; N, C: chain ends. Non-standard residues stand in square brackets, D forms with d. Residues, ends and D or L forms follow the SMILES beside them. ξ: configuration not given here. *: point of attachment. Pro(trans-4-cHex) = O=C(O)[C@@H]1C[C@@H](C2CCCCC2)CN1; Bip = N[C@@H](Cc1ccc(-c2ccccc2)cc1)C(=O)O; Phe(4-F) = N[C@@H](Cc1ccc(F)cc1)C(=O)O; Hyp = O=C(O)[C@@H]1C[C@@H](O)CN1; NMeNle = CCCC[C@H](NC)C(=O)O; NMeV = CN[C@H](C(=O)O)C(C)C; dNle = CCCC[C@@H](N)C(=O)O; NMeA = CN[C@@H](C)C(=O)O; Orn = NCCC[C@H](N)C(=O)O; Dab = NCC[C@H](N)C(=O)O; Dap = NC[C@H](N)C(=O)O; ξP = O=C(O)C1CCCN1; Bn = c1ccc(C*)cc1; Sar = CNCC(=O)O A value given as a limit tells only on which side of the number the result lay.

The target in one test is Hu PD-L1/PD-1 (Homo sapiens, UniProt Q9NZQ7). The test is described as follows: Cell binding assay Hu PD-L1/PD-1 (Tables 11-13, cell line not given). It is filed as cell-based. The procedure: The ability of the macrocyclic peptides of the present disclosure to bind to Jurkat, mouse B cell line (LK35.2), and a human lung adenocarcinoma cell line (L2987) was investigated. Jurkat-PD-1 Cell Binding Assay. Phycoerythrin (PE) was covalently linked to the Ig epitope tag of human PD-L1-Ig and fluorescently-labeled PD-L1-Ig was used for binding studies with a Jurkat cell line over-expressing human PD-1 (Jurkat-PD-1). […] Cells were washed 3× in dPBS. Cells were resuspended in 200 μl of dPBS and binding was measured by flow cytometry. LK35.2-hPD-L1 Cell Binding Assay. Phycoerythrin (PE) was covalently linked to the Ig eptitope tag of human PD-1-Ig and fluorescently-labeled PD-1-Ig was used for binding studies with a mouse B cell line (LK35.2) stably over-expressing human PD-L1 (LK35.2-hPD-L1). Briefly, […] LK35.2-hPD-L1 cells were pre-incubated with inhibitor for 15 m in a 30 μl volume of RPMI supplemented with 2% fetal calf serum. 20 μl of PE-labeled PD-1-Ig (2 nM final), diluted in RPMI supplemented with 2% fetal calf serum, was dispensed on top of cells and inhibitor and binding was allowed to take place for 1 h at room temperature. Cells were washed 3× in dPBS. Cells were resuspended in 200 μl of dPBS and binding was measured by flow cytometry. L2987 Cellomics Cell Binding Assay. Phycoerythrin (PE) was covalently linked to the Ig eptitope tag of human PD-1-Ig and fluorescently-labeled PD-1-Ig was used for binding studies with a human lung adenocarcinoma cell line (L2987) which naturally expresses PD-L1. […] The following day, inhibitors were diluted in serum-free DMEM and 25 μl was dispensed on top of cells. […] Samples were incubated for 1 h at 37° C. followed by 2 washes in dPBS and fixation for 30 m with 4% paraformaldehyde. Samples were further washed 2× in dPBS. Hoechst (final 1 μg/ml) was added to final wash to stain nuclei. Plates were processed using a Cellomics […]®.
Hu PD-L1/PD-1, sequence (Q9NZQ7 19-290): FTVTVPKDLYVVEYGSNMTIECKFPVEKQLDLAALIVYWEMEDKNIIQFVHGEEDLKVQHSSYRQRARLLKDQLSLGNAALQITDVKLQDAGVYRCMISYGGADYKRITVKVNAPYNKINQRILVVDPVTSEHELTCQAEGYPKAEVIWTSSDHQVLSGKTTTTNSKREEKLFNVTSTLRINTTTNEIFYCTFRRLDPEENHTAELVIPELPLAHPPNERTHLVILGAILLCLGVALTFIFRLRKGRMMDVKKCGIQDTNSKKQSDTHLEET

The target of a further test is T1, Human PD-L1/PD-1 (Homo sapiens, UniProt Q9NZQ7).
T1 construct: made in house; host or cells: HEK293T
T1 sequence (Q9NZQ7 with tags, fused parts or gaps): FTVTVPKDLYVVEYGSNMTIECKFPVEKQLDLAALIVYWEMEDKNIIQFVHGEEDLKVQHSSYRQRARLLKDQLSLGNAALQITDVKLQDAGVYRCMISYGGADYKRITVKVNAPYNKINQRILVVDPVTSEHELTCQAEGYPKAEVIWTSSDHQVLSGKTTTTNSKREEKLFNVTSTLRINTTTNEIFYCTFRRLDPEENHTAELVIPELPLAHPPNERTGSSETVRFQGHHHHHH
The test is described as follows: HTRF PD-1-Ig/PD-L1-His binding assay (human PD-L1). The conditions noted are these: cluster symbol; read-out: HTRF IC50 cluster. The essentials: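 The time-resolved fluorescence signal comes from Eu-cryptate anti-Ig (1 nM) and APC anti-His (20 nM) antibodies bound to a PD-1-Ig/PD-L1-His complex. Both partners lack transmembrane regions.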
(TR-FRET usually uses a lanthanide donor and a delayed reading to cut background.)

Test [1] deals with T2, LK35.2-hPD-L1 cells / PE-labeled PD-1-Ig (Homo sapiens, UniProt Q9NZQ7).
T2 construct: expressed in transfected cells; host or cells: LK35.2 mouse B cell line
T2 sequence (Q9NZQ7 19-290): as the sequence (Q9NZQ7 19-290) above
Description: LK35.2-hPD-L1 cell binding high-content screening assay. It is filed as cell-based. The conditions noted are these: cell binding assay, cell line not given; cluster symbol; read-out: CBA IC50 cluster. The essentials:
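Readout: high-content imaging of PE-PD-1-Ig bound to LK35.2-hPD-L1 cells. Cells plated overnight (RPMI/10% FCS); compound + 1 nM PE-PD-1-Ig, 1 h, 37 °C; 3× dPBS wash before imaging.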

A word on the IC50: it is the point on the concentration scale where inhibition reaches its midpoint. On Hu PD-L1/PD-1, `CCCC[C@H]1C(=O)N(C)[C@@H](CCCC)C(=O)N[C@@H](CCCNC(=N)N)C(=O)N[C@H](C(=O)NCC(N)=O)CSCC(=O)N[C@@H](C)C(=O)N(C)[C@@H](C)C(=O)N[C@@H](CC(N)=O)C(=O)N2CCCC2C(=O)N[C@@H](Cc2cnc[nH]2)C(=O)N[C@@H](CC(C)C)C(=O)N(C)CC(=O)N[C@@H](Cc2c[nH]c3ccccc23)C(=O)N[C@@H](CO)C(=O)N[C@@H](Cc2c[nH]c3ccccc23)C(=O)N1C` (some centres unmarked) [Compound No. 5] ({CH2CO}-A[NMeA]N[ξP]HL[Sar]WSW[NMeNle][NMeNle]RCG-NH2; thioether N-14) returned an IC50 of over 10000 nM.
On the same count and under the same terms, for `CCCC[C@H]1C(=O)N(C)[C@@H](CCCC)C(=O)N[C@@H](CCCNC(=N)N)C(=O)N[C@H](C(=O)NCC(N)=O)CSCC(=O)N[C@@H](Cc2ccccc2)C(=O)N(C)[C@@H](C)C(=O)N[C@@H](CC(N)=O)C(=O)N[C@@H](C)C(=O)N[C@@H](Cc2cnc[nH]2)C(=O)N[C@@H](CC(C)C)C(=O)N(C)CC(=O)N[C@@H](Cc2c[nH]c3ccccc23)C(=O)N[C@@H](CO)C(=O)N[C@@H](Cc2c[nH]c3ccccc23)C(=O)N1C` [Compound No. 9] ({CH2CO}-F[NMeA]NAHL[Sar]WSW[NMeNle][NMeNle]RCG-NH2; thioether N-14) the value was 71 nM; for `CCCC[C@H]1C(=O)N(C)[C@@H](CCCC)C(=O)N[C@@H](CCCNC(=N)N)C(=O)N[C@H](C(=O)NCC(N)=O)CSCC(=O)N[C@@H](Cc2ccc(-c3ccccc3)cc2)C(=O)N(C)[C@@H](C)C(=O)N[C@@H](CC(N)=O)C(=O)N2CCC[C@H]2C(=O)N[C@@H](Cc2cnc[nH]2)C(=O)N[C@@H](CC(C)C)C(=O)N(C)CC(=O)N[C@@H](Cc2c[nH]c3ccccc23)C(=O)N[C@@H](CO)C(=O)N[C@@H](Cc2c[nH]c3ccccc23)C(=O)N1C` [Compound No. 28] ({CH2CO}-[Bip][NMeA]NPHL[Sar]WSW[NMeNle][NMeNle]RCG-NH2; thioether N-14), 82 nM.
Take `CCCC[C@H]1C(=O)N(C)[C@@H](CCCC)C(=O)N[C@@H](CCCNC(=N)N)C(=O)N[C@@H](C(=O)NCC(N)=O)CSCC(=O)N[C@@H](Cc2ccc(F)cc2)C(=O)N(C)[C@@H](C)C(=O)N[C@@H](CC(N)=O)C(=O)N2CCC[C@H]2C(=O)N[C@@H](Cc2cnc[nH]2)C(=O)N[C@@H](CC(C)C)C(=O)N(C)CC(=O)N[C@@H](Cc2c[nH]c3ccccc23)C(=O)N[C@@H](CO)C(=O)N[C@@H](Cc2c[nH]c3ccccc23)C(=O)N1C` [Compound No. 32] ({CH2CO}-[Phe(4-F)][NMeA]NPHL[Sar]WSW[NMeNle][NMeNle]R[dC]G-NH2; thioether N-14): the IC50 on Hu PD-L1/PD-1 was found to be 25 nM.
Consider `CCCC[C@H]1C(=O)N(C)[C@@H](CCCC)C(=O)N[C@@H](CCCNC(=N)N)C(=O)N[C@H](C(=O)NCC(N)=O)CSCC(=O)N[C@@H](Cc2ccccc2)C(=O)N(C)[C@@H](C(C)C)C(=O)N[C@@H](CC(N)=O)C(=O)N2CCC[C@H]2C(=O)N[C@@H](Cc2c[nH]cn2)C(=O)N[C@@H](CC(C)C)C(=O)N(C)CC(=O)N[C@@H](Cc2c[nH]c3ccccc23)C(=O)N[C@@H](CO)C(=O)N[C@@H](Cc2c[nH]c3ccccc23)C(=O)N1C` [Compound No. 41] ({CH2CO}-F[NMeV]NPHL[Sar]WSW[NMeNle][NMeNle]RCG-NH2; thioether N-14), for which, at Hu PD-L1/PD-1, the IC50 is over 10000 nM.
Consider `CCCC[C@H]1C(=O)N(C)[C@@H](CCCC)C(=O)N[C@@H](CCCNC(=N)N)C(=O)N[C@H](C(=O)NCC(N)=O)CSCC(=O)N[C@@H](Cc2ccccc2)C(=O)N(C)[C@@H](C)C(=O)N[C@@H](CC(N)=O)C(=O)N2CCC[C@H]2C(=O)N[C@@H](Cc2cnc[nH]2)C(=O)N[C@@H](CC(C)C)C(=O)N(C)CC(=O)N[C@@H](Cc2c[nH]c3ccccc23)C(=O)N[C@@H](CO)C(=O)N[C@@H](CC(C)C)C(=O)N1C` [Compound No. 63] ({CH2CO}-F[NMeA]NPHL[Sar]WSL[NMeNle][NMeNle]RCG-NH2; thioether N-14), for which the IC50 on Hu PD-L1/PD-1 is over 10000 nM.
`CCCC[C@H]1NC(=O)[C@H](Cc2c[nH]c3ccccc23)NC(=O)[C@H](CO)NC(=O)[C@H](Cc2c[nH]c3ccccc23)NC(=O)CN(C)C(=O)[C@H](CC(C)C)NC(=O)[C@H](Cc2cnc[nH]2)NC(=O)[C@@H]2CCCN2C(=O)[C@H](CC(N)=O)NC(=O)[C@H](C)N(C)C(=O)[C@H](Cc2ccccc2)NC(=O)CSC[C@@H](C(=O)NCC(N)=O)NC(=O)[C@H](CCCNC(=N)N)NC(=O)[C@H](CCCC)N(C)C1=O` [Compound No. 70] ({CH2CO}-F[NMeA]NPHL[Sar]WSW[dNle][NMeNle]RCG-NH2; thioether N-14) had a 50% inhibitory concentration (IC50) on Hu PD-L1/PD-1 of over 10000 nM.
For `CCCC[C@H]1C(=O)N(C)[C@@H](CCCC)C(=O)N[C@@H](CCCN)C(=O)N[C@H](C(=O)NCC(N)=O)CSCC(=O)N[C@@H](Cc2ccc(O)cc2)C(=O)N(C)[C@@H](C)C(=O)N[C@@H](CC(N)=O)C(=O)N2CCC[C@H]2C(=O)N[C@@H](CN)C(=O)N[C@@H](CC(C)C)C(=O)N2C[C@H](OCc3ccccc3)C[C@H]2C(=O)N[C@@H](Cc2c[nH]c3ccccc23)C(=O)N[C@@H](CO)C(=O)N[C@@H](Cc2c[nH]c3ccccc23)C(=O)N1C` [Example 14003] ({CH2CO}-Y[NMeA]NP[Dap]L[Hyp](Bn)WSW[NMeNle][NMeNle][Orn]CG-NH2; thioether N-14), the figures for the IC50 (at Human PD-L1/PD-1; in test [1]) were 0.385 to 6.74 nM and 0.158 to 4.71 nM, respectively.
The like results for `CCCC[C@H]1C(=O)N(C)[C@@H](CCCC)C(=O)N[C@@H](CCC(=O)O)C(=O)N[C@H](C(=O)NCC(N)=O)CSCC(=O)N[C@@H](Cc2ccc(O)cc2)C(=O)N(C)[C@@H](C)C(=O)N[C@@H](CC(=O)O)C(=O)N2CCC[C@H]2C(=O)N[C@@H](Cc2c[nH]cn2)C(=O)N[C@@H](CCCCN)C(=O)N2C[C@H](OCc3ccccc3)C[C@H]2C(=O)N[C@@H](Cc2c[nH]c3ccccc23)C(=O)N[C@@H](CCCCN)C(=O)N[C@@H](Cc2c[nH]c3ccccc23)C(=O)N1C` [Example 14004] ({CH2CO}-Y[NMeA]DPHK[Hyp](Bn)WKW[NMeNle][NMeNle]ECG-NH2; thioether N-14) were, in that order, 0.385 to 6.74 nM and 0.158 to 4.71 nM.
For `CCCC[C@H]1C(=O)N(C)[C@@H](CCCC)C(=O)N[C@@H](CCN)C(=O)N[C@H](C(=O)NCC(N)=O)CSCC(=O)N[C@@H](Cc2ccc(O)cc2)C(=O)N(C)[C@@H](C)C(=O)N[C@@H](CC(N)=O)C(=O)N2CCC[C@H]2C(=O)N[C@@H](Cc2c[nH]cn2)C(=O)N[C@@H](CCC(=O)O)C(=O)N2C[C@H](C3CCCCC3)C[C@H]2C(=O)N[C@@H](Cc2c[nH]c3ccccc23)C(=O)N[C@@H](CCN)C(=O)N[C@@H](Cc2c[nH]c3ccccc23)C(=O)N1C` [Example 14005] ({CH2CO}-Y[NMeA]NPHE[Pro(trans-4-cHex)]W[Dab]W[NMeNle][NMeNle][Dab]CG-NH2; thioether N-14), the IC50 at Human PD-L1/PD-1 was 0.385 to 6.74 nM; in test [1] it was 0.158 to 4.71 nM.
In the case of `CCCC[C@H]1C(=O)N(C)[C@@H](CCCC)C(=O)N[C@@H](CCCN)C(=O)N[C@H](C(=O)NCC(N)=O)CSCC(=O)N[C@@H](Cc2ccc(O)cc2)C(=O)N(C)[C@@H](C)C(=O)N[C@@H](CC(N)=O)C(=O)N2CCC[C@H]2C(=O)N[C@@H](CN)C(=O)N[C@@H](CC(C)C)C(=O)N2C[C@H](C3CCCCC3)C[C@H]2C(=O)N[C@@H](Cc2c[nH]c3ccccc23)C(=O)N[C@@H](CO)C(=O)N[C@@H](Cc2c[nH]c3ccccc23)C(=O)N1C` [Example 14007] ({CH2CO}-Y[NMeA]NP[Dap]L[Pro(trans-4-cHex)]WSW[NMeNle][NMeNle][Orn]CG-NH2; thioether N-14), the IC50 at Human PD-L1/PD-1 lay in the range of 0.385 to 6.74 nM; in test [1] it was 0.158 to 4.71 nM.
Consider `CCCC[C@H]1C(=O)N(C)[C@@H](CCCC)C(=O)N[C@@H](CCC(=O)O)C(=O)N[C@H](C(=O)NCC(N)=O)CSCC(=O)N[C@@H](Cc2ccc(O)cc2)C(=O)N(C)[C@@H](C)C(=O)N[C@@H](CC(=O)O)C(=O)N2CCC[C@H]2C(=O)N[C@@H](Cc2c[nH]cn2)C(=O)N[C@@H](CCCCN)C(=O)N2C[C@H](C3CCCCC3)C[C@H]2C(=O)N[C@@H](Cc2c[nH]c3ccccc23)C(=O)N[C@@H](CCCCN)C(=O)N[C@@H](Cc2c[nH]c3ccccc23)C(=O)N1C` [Example 14008] ({CH2CO}-Y[NMeA]DPHK[Pro(trans-4-cHex)]WKW[NMeNle][NMeNle]ECG-NH2; thioether N-14), for which the IC50 at Human PD-L1/PD-1 lay in the range of 0.385 to 6.74 nM; in test [1] it was 0.158 to 4.71 nM.
